Results taken from patent US12655130B2 (ASSEMBLY BIOSCIENCES, INC., priority 2020, dated 2026).

System: HBV viral load (viral production from HepAD38 cells)
Assay: Activity of test compounds on viral production from HepAD38 cells (viral load by qPCR of HBV core sequence)
Assay type: cell-based
Settings: Hepatitis B virus, HePAD38, 120 h, viral load lowering, 5 days, qPCR of supernatant, read-out: VL HepAD38 EC50 range
Summary of the method: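 HepAD38 cells seeded at 50,000/well in tetracycline-free medium with 2% FBS, treated 5 days at 37 °C with compounds from 10 μM top concentration. Supernatant HBV DNA quantified by TaqMan qPCR of core sequence against HBV DNA standards, relative to DMSO wells; viability by CellTiter-Glo; EC50/CC50 by four-parameter logistic fit.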

Compound	EC50 [nM]
COc1cc(C2(O)CC3CC(c4ncn(C)c4C(=O)Nc4ccc(F)c(Cl)c4)CC3C2)n(C)n1 (centres unmarked) [Example 93, N-(3-chloro-4-fluorophenyl)-4-(5-hydroxy-5-(3-methoxy-1-methyl-1H-pyrazol-5-yl)octahydropentalen-2-yl)-1-methyl-1H-imidazole-5-carboxamide]	< 10
CC(C)c1cc(C2(O)CC3CC(c4ncn(C)c4C(=O)Nc4ccc(F)c(Cl)c4)CC3C2)n(C)n1 (centres unmarked) [Example 94, N-(3-chloro-4-fluorophenyl)-4-(5-hydroxy-5-(3-isopropyl-1-methyl-1H-pyrazol-5-yl)octahydropentalen-2-yl)-1-methyl-1H-imidazole-5-carboxamide]	< 10
Cn1cnc(C2CC3CC(O)(Cn4ccc(O)n4)CC3C2)c1C(=O)Nc1ccc(F)c(Cl)c1 (centres unmarked) [Example 95, N-(3-chloro-4-fluorophenyl)-4-(5-hydroxy-5-((3-hydroxy-1H-pyrazol-1-yl)methyl)octahydropentalen-2-yl)-1-methyl-1H-imidazole-5-carboxamide]	10 to 50
CN(C)c1ccn(CC2(O)CC3CC(c4ncn(C)c4C(=O)Nc4ccc(F)c(Cl)c4)CC3C2)n1 (centres unmarked) [Example 96, N-(3-chloro-4-fluorophenyl)-4-(5-((3-(dimethylamino)-1H-pyrazol-1-yl)methyl)-5-hydroxyoctahydropentalen-2-yl)-1-methyl-1H-imidazole-5-carboxamide]	< 10
Cn1cnc(C2CC3CC(O)(Cn4ccc(C(C)(C)C)n4)CC3C2)c1C(=O)Nc1ccc(F)c(Cl)c1 (centres unmarked) [Example 97, 4-(5-((3-(tert-butyl)-1H-pyrazol-1-yl)methyl)-5-hydroxyoctahydropentalen-2-yl)-N-(3-chloro-4-fluorophenyl)-1-methyl-1H-imidazole-5-carboxamide]	< 10
Cn1cnc(C2CC3CC(O)(c4c(Cl)c(N)nn4C)CC3C2)c1C(=O)Nc1ccc(F)c(Cl)c1 (centres unmarked) [Example 98, 4-(5-(3-amino-4-chloro-1-methyl-1H-pyrazol-5-yl)-5-hydroxyoctahydropentalen-2-yl)-N-(3-chloro-4-fluorophenyl)-1-methyl-1H-imidazole-5-carboxamide]	< 10
Cn1cnc(C2CC3CC(O)(c4c(C(F)(F)F)cnn4C)CC3C2)c1C(=O)Nc1ccc(F)c(Cl)c1 (centres unmarked) [Example 99, N-(3-chloro-4-fluorophenyl)-4-(5-hydroxy-5-(1-methyl-4-(trifluoromethyl)-1H-pyrazol-5-yl)octahydropentalen-2-yl)-1-methyl-1H-imidazole-5-carboxamide]	< 10
CN(C)S(=O)(=O)c1cc(C2(O)CC3CC(c4ncn(C)c4C(=O)Nc4ccc(F)c(Cl)c4)CC3C2)n(C)n1 (centres unmarked) [Example 100, N-(3-chloro-4-fluorophenyl)-4-(5-(3-(N,N-dimethylsulfamoyl)-1-methyl-1H-pyrazol-5-yl)-5-hydroxyoctahydropentalen-2-yl)-1-methyl-1H-imidazole-5-carboxamide]	< 10
Cn1cnc(C2CC3CC(O)(Cn4ccc(Cl)n4)CC3C2)c1C(=O)Nc1ccc(F)c(Cl)c1 (centres unmarked) [Example 101, 4-(5-((3-Chloro-1H-pyrazol-1-yl)methyl)-5-hydroxyoctahydropentalen-2-yl)-N-(3-chloro-4-fluorophenyl)-1-methyl-1H-imidazole-5-carboxamide]	< 10
CC(C)n1nc(N)c(Cl)c1C1(O)CC2CC(c3ncn(C)c3C(=O)Nc3ccc(F)c(Cl)c3)CC2C1 (centres unmarked) [Example 102, 4-(5-(3-amino-4-chloro-1-isopropyl-1H-pyrazol-5-yl)-5-hydroxyoctahydropentalen-2-yl)-N-(3-chloro-4-fluorophenyl)-1-methyl-1H-imidazole-5-carboxamide]	< 10
Cn1cnc(C2CC3CC(O)(c4c(Cl)c(N)nn4C)CC3C2)c1C(=O)Nc1ccc(F)cc1 (centres unmarked) [Example 103, 4-(5-(3-amino-4-chloro-1-methyl-1H-pyrazol-5-yl)-5-hydroxyoctahydropentalen-2-yl)-N-(4-fluorophenyl)-1-methyl-1H-imidazole-5-carboxamide]	< 10
Cn1cnc(C2CC3CC(O)(c4cc(C(C)(C)C#N)nn4C)CC3C2)c1C(=O)Nc1ccc(F)c(Cl)c1 (centres unmarked) [Example 104, N-(3-chloro-4-fluorophenyl)-4-(5-(3-(2-cyanopropan-2-yl)-1-methyl-1H-pyrazol-5-yl)-5-hydroxyoctahydropentalen-2-yl)-1-methyl-1H-imidazole-5-carboxamide]	< 10
Cn1cnc(C2CC3CC(O)(c4cc(C(C)(C)C(F)(F)F)nn4C)CC3C2)c1C(=O)Nc1ccc(F)c(Cl)c1 (centres unmarked) [Example 105, N-(3-chloro-4-fluorophenyl)-4-(5-hydroxy-5-(1-methyl-3-(1,1,1-trifluoro-2-methylpropan-2-yl)-1H-pyrazol-5-yl)octahydropentalen-2-yl)-1-methyl-1H-imidazole-5-carboxamide]	< 10
Cn1cnc(C2CC3CC(O)(c4cc(C(C)(C)C(N)=O)nn4C)CC3C2)c1C(=O)Nc1ccc(F)c(Cl)c1 (centres unmarked) [Example 106, 4-(5-(3-(1-amino-2-methyl-1-oxopropan-2-yl)-1-methyl-1H-pyrazol-5-yl)-5-hydroxyoctahydropentalen-2-yl)-N-(3-chloro-4-fluorophenyl)-1-methyl-1H-imidazole-5-carboxamide]	< 10
Cn1cnc(C2CC3CC(O)(c4cc(C(O)C(F)(F)F)nn4C)CC3C2)c1C(=O)Nc1ccc(F)c(C#N)c1 (centres unmarked) [Example 107, N-(3-Cyano-4-fluorophenyl)-4-(5-hydroxy-5-(1-methyl-3-(2,2,2-trifluoro-1-hydroxyethyl)-1H-pyrazol-5-yl)octahydropentalen-2-yl)-1-methyl-1H-imidazole-5-carboxamide]	< 10
Cn1cnc(C2CC3CC(O)(c4cc(C(C)(C)O)nn4C)CC3C2)c1C(=O)Nc1ccc(F)c(C#N)c1 (centres unmarked) [Example 108, N-(3-Cyano-4-fluorophenyl)-4-(5-hydroxy-5-(3-(2-hydroxypropan-2-yl)-1-methyl-1H-pyrazol-5-yl)octahydropentalen-2-yl)-1-methyl-1H-imidazole-5-carboxamide]	< 10
CC(O)c1cc(C2(O)CC3CC(c4ncn(C)c4C(=O)Nc4ccc(F)c(Cl)c4)CC3C2)n(C)n1 (centres unmarked) [Example 109, N-(3-Chloro-4-fluorophenyl)-4-(5-hydroxy-5-(3-(1-hydroxyethyl)-1-methyl-1H-pyrazol-5-yl)octahydropentalen-2-yl)-1-methyl-1H-imidazole-5-carboxamide]	< 10
Cn1cc(C2(O)CC3CC(c4nc(Cl)n(C)c4C(=O)Nc4ccc(F)c(Cl)c4)CC3C2)c(C(F)(F)F)n1 (centres unmarked) [Example 110, 2-Chloro-N-(3-chloro-4-fluorophenyl)-4-(5-hydroxy-5-(1-methyl-3-(trifluoromethyl)-1H-pyrazol-4-yl)octahydropentalen-2-yl)-1-methyl-1H-imidazole-5-carboxamide]	< 10
Cn1nc(C(F)(F)F)cc1C1(O)CC2CC(c3nc(Cl)n(C)c3C(=O)Nc3ccc(F)c(Cl)c3)CC2C1 (centres unmarked) [Example 111, 2-Chloro-N-(3-chloro-4-fluorophenyl)-4-(5-hydroxy-5-(1-methyl-3-(trifluoromethyl)-1H-pyrazol-5-yl)octahydropentalen-2-yl)-1-methyl-1H-imidazole-5-carboxamide]	10 to 50
CC(N)c1cc(C2(O)CC3CC(c4ncn(C)c4C(=O)Nc4ccc(F)c(Cl)c4)CC3C2)n(C)n1 (centres unmarked) [Example 112, 4-(5-(3-(1-Aminoethyl)-1-methyl-1H-pyrazol-5-yl)-5-hydroxyoctahydropentalen-2-yl)-N-(3-chloro-4-fluorophenyl)-1-methyl-1H-imidazole-5-carboxamide]	10 to 50
